From patent publication EP0175180A1, “Histargin-related compounds, a process for their preparation and their use as medicaments” (MICROBIAL CHEMISTRY RESEARCH FOUNDATION, priority 1984, dated 1986)

Experiments:
[1] = target: T1, carboxypeptidase B (Sus scrofa, UniProt P09955); assay: Inhibition of the action of carboxypeptidase B; type: biochemical; details: carboxypeptidase B purified from swine pancreas, 37°C, 30 minutes, pH 8.0; read-out: CP-B inhibition IC50 (converted)
T1 construct: carboxypeptidase B purified from swine pancreas; purchased C; F. Boehringer & Soehne GmbH, Mannheim; host or cells: swine pancreas
T1 sequence (P09955 111-416): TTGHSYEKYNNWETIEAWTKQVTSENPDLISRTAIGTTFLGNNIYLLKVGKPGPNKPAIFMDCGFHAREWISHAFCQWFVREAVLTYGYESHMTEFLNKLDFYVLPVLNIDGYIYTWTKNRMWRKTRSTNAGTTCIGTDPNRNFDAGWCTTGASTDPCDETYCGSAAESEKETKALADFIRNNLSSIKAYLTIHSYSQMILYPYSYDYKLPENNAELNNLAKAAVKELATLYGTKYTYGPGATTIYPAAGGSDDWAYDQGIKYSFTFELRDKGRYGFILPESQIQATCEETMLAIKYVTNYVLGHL
Experimental: The inhibition of the action of carboxypeptidase B was determined by an improved version of the method for determination of the activity of angiotensin converting enzyme described in M. Hayakari et al., Analytical Biochemistry, 84, 361 - 369 (1978). The method proceeds as follows: A mixture of 0.05 mℓ of 0.05 M fibril-L-lysine (prepared by Tanpakushitsu Kenkyu Shoreikai) with 0.25 mℓ of 0.05 M Tris-HCℓ buffer solution (pH 8.0) and 0.15 mℓ of a solution containing a test compound was heated at 37°C for 3 minutes. To the heated solution, 0.05 mℓ of an aqueous solution containing 1 ug/mℓ of carboxypeptidase B purified from swine pancreas (product of C. F. Boehringer G Sohne GmbH, Mannheim) and 1 mg/mℓ of bovine albumin was added, and the mixture was subjected to reaction at 37°C for 30 minutes. The reaction was quenched by adding 0.03 mℓ of 1 N caustic soda. Fifteen minutes later, 2 mℓ of 0.05 M sodium phosphate buffer solution (pH 7.2) was added to the reaction mixture, and color reaction was performed by addition of 2 mℓ of 1% cyanuric chloride in methyl cellosolve. The mixture was left at room temperature for 15 minutes and the absorbance (a) at 382 nm was measured. The absorbance (b) of a control containing no test compound was also measured by repeating the same procedure. Blank tests were also conducted to determine the corresponding absorbances (a') and (b').
In each blank teat, the color reaction was performed by adding the enzyme solution after caustic soda so that no enzymatic reaction would take place. The percent inhibition of the action of carboxypeptidase B was calculated by the formula: [formula]

[2] = system: rats; assay: Acute toxicity test by intraperitoneal administration; type: in vivo
Text: Each of the compounds in accordance with the present invention has low toxicity and can safely be used as a medicine. The results of an acute toxicity test conducted by intraperitoneal administration of rats with compound Nos. la to 5a are summarized in Table 5.

[3] = target: T2, angiotensin converting enzyme (Bos taurus, UniProt P12820); assay: Inhibition of the action of angiotensin converting enzyme; type: biochemical; details: enzyme partially purified from a bovine lung, 37°C, 30 minutes; read-out: IC50 (50% inhibition concentration) (converted)
T2 construct: angiotensin converting enzyme partially purified from a bovine lung; from tissue; host or cells: bovine lung
T2 sequence (P12820 29-1306): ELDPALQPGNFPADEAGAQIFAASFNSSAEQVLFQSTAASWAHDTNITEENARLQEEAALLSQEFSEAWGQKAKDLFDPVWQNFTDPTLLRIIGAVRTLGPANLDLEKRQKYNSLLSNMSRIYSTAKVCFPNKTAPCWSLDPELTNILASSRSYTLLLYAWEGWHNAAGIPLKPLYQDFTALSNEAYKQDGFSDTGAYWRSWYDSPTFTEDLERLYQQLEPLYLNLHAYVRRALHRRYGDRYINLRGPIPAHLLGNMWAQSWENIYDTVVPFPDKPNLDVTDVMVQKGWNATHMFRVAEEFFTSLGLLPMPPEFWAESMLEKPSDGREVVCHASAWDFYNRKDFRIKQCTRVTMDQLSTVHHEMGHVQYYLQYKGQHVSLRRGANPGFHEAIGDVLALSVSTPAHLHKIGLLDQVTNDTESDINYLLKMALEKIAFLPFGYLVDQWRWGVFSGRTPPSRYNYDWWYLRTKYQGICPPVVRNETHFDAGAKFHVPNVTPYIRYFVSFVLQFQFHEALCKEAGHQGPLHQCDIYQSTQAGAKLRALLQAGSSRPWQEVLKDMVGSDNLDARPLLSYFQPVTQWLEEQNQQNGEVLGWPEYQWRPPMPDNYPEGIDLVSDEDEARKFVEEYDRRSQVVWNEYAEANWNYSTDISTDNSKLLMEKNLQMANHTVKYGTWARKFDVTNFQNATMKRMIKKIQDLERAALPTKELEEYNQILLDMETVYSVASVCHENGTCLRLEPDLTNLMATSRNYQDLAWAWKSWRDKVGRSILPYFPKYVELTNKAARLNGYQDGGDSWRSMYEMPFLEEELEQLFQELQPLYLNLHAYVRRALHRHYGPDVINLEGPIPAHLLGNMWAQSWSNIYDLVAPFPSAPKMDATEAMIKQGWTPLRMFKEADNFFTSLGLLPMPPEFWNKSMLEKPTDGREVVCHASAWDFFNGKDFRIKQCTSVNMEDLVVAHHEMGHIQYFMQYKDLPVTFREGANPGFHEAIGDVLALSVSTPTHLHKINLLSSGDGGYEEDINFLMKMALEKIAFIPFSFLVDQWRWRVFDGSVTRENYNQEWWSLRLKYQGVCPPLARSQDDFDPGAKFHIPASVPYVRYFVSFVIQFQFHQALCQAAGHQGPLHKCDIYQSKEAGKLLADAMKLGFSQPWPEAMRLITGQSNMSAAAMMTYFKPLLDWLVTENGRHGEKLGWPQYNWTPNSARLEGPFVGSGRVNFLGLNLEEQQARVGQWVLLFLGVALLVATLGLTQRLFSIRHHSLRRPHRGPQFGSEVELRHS
Experimental: The inhibition of the action of angiotensin converting enzyme was determined by an inproved version of the method for determination of the activity of angiotensin converting enzyme described in M. Hayakari et al., Analytical Biochemistry, 84, 361 - 369 (1978). The method proceeds as follows: Substrate fibril-L-histidyl-L-leucine was dissolved at a concentration of 5 mg/mt in Tris-HCℓ buffer solution (0.5 M, pH 8.0) containing 0.3 M NaCℓ. A mixture of this solution (0.05 mℓ) and 0.40 mℓ of a solution containing a test compound was heated at 37°C for 3 minutes. To the heated solution, 0.05 ml of a solution containing angiotensin converting enzyme partially purified from a bovine lung was added, and the mixture was subjected to reaction at 37°C for 30 minutes. The reaction was quenched by adding 0.03 mℓ of 1 N caustic soda. […] The mixture was left at room temperature for 15 minutes and the absorbance (a) at 382 nm was measured. The absorbance (b) of a control containing no test compound was also measured by repeating the same procedure. Blank tests were also conducted to determine the corresponding absorbances (a') and (b'). […] The percent inhibition of the action of angiotensin converting enzyme was calculated by the formula: [formula]

[4] = target: T3, carboxypeptidase A (Bos taurus, UniProt P00730); assay: Inhibition of the action of carboxypeptidase A; type: biochemical; details: carboxypeptidase A purified from bovine pancreas, 37°C, 30 minutes, pH 7.5; read-out: CP-A inhibition IC50 (converted)
T3 construct: carboxypeptidase A purified from bovine pancreas; purchased Sigma Chemical Co; host or cells: bovine pancreas
T3 sequence (P00730 111-419): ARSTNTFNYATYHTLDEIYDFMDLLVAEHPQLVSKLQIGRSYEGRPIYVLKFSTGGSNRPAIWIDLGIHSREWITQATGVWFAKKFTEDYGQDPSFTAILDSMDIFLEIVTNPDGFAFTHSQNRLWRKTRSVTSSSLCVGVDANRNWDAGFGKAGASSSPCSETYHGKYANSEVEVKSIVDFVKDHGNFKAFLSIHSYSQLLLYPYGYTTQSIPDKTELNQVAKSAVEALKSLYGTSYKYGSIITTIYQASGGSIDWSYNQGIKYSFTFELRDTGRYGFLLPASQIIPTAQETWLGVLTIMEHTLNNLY
Experimental: (2) Inhibition of the action of carboxypeptidase A The inhibition of the action of carboxypeptidase A was determined by the method described in T. Tanaka et al., The Journal of Antibiotics, 37, 682 - 684 (1984). The method proceeds as follows: A mixture of 0.05 mℓ of 0.01 M fibril-L-phenylalanine (product of Sigma Chemical Co.) with 0.25 mℓ of 0.05 M Tris-HCℓ buffer solution (pH 7.5) containing 0.9 M NaCℓ. and 0.15 mℓ of a solution containing a teat compound was heated at 37°C for 3 minutes. To the heated solution, 0.05 mℓ of a diluted aqueous solution of carboxypeptidase A purified from bovine pancreas (product of Sigma Chemical Co.) which also contained 1 mg/mℓ of purified bovine albumin was added and the mixture was enbjected to reaction at 37°C for 30 minutes. The reaction was quenched by adding 0.03 mℓ of 1 M caustic soda. Fifteen minutes later, 2 mℓ of 0.06 M sodium phosphate buffer solution (pH 7.2) was added to the reaction mixture, and color reaction was performed by addition of 2 mℓ of 1% cyanuric chloride in methyl cellosolve. The mixture was left at room temperature for 15 minutes and the absorbance (a) at 382 nm was measured. The absorbance (b) of a control containing no test compound was also measured by repeating the same procedure. Blank tests were also conducted to determine the corresponding absorbances (a') and (b'). In each blank test, the color reaction was performed by adding the enzyme solution after caustic soda so that no enzymatic reaction would take place. The percent inhibition of the action of carboxypeptidase A was calculated by the formula: [formula]

[5] = intraperitoneal administration, rats, dose stated in each result

Compound | IC50 [1] | Test results (acute toxicity) ([2]; rat, in vivo, ip) | IC50 [3] | IC50 [4] | Test results (acute toxicity) [2, 5]
O=C(O)[C@H](Cc1c[nH]cn1)NCCN[C@@H](Cc1c[nH]cn1)C(=O)O [1a, L-His-C2-L-His] | 178 µM | No toxicity observed upon administration of 400 mg/kg. | 2.08 µM | > 595 µM | –
O=C(O)[C@H](Cc1ccccc1)NCCN[C@@H](Cc1c[nH]cn1)C(=O)O [2a, L-His-C2-L-Phe] | 185 µM | – | – | 24.3 µM | No toxicity observed upon administration of 100 mg/kg.
NCCCC[C@H](NCCN[C@@H](Cc1c[nH]cn1)C(=O)O)C(=O)O [3a, L-His-C2-L-Lys] | > 611 µM | – | – | > 611 µM | No toxicity observed upon administration of 400 mg/kg.
O=C(O)[C@H](Cc1c[nH]cn1)NCCN1CCC[C@H]1C(=O)O [4a, L-His-C2-L-Pro] | > 675 µM | – | – | > 675 µM | No toxicity observed upon administration of 400 mg/kg.
O=C(O)C[C@H](NCCN[C@@H](Cc1c[nH]cn1)C(=O)O)C(=O)O [5a, L-His-C2-L-Asp] | > 636 µM | No toxicity observed upon administration of 400 mg/kg. | 1.59 µM | > 636 µM | –
NCCC[C@H](NCCN[C@@H](Cc1c[nH]cn1)C(=O)O)C(=O)O [6a, L-His-C2-L-Orn] | 357 µM | – | – | > 638 µM | –
CCOC(=O)[C@H](Cc1ccccc1)NCCN[C@@H](Cc1c[nH]cn1)C(=O)O [7a, L-His-C2-L-Phe-OEt] | > 534 µM | – | – | 390 µM | –
